Results taken from US6355619B1, “Peptide tumor cell growth inhibitors” (Board of Regents, The University of Texas System, priority 1996, dated 2002).
Where no end group is shown, it is not given here. [ ]: non-standard residue; d: D form.

The substances below were run against IL-8 receptors on human neutrophils (human) (assay: inhibition of 125I-IL-8 binding to human neutrophils, method of Example I; D-amino acid heptamer series). Conditions: not given.

Substance	% INHIB.
rrwwcre (peptide)	99.1%
rrwwcrk (peptide)	113%
rrwwcrg (peptide)	108%
rrwwcry (peptide)	85.4%
rrwwcrn (peptide)	111%
rrwwcrf (peptide)	106%
rrwwcrp (peptide)	87.3%
rrwwcrh (peptide)	107%
rrwwcra (peptide)	95.3%
rrwwcrw (peptide)	106%
rrwwcrv (peptide)	89.2%
rrwwcrt (peptide)	56.3%
rrwwcri (peptide)	93.9%
rrwwcrm (peptide)	96.2%
rrwwcrr (peptide)	103%
rrwwcrq (peptide)	89.2%
rrwwcrs (peptide)	70.4%
rrwwcrl (peptide)	99.1%
rrwwcrd (peptide)	107%

The substances below were run against IL-8 receptors on human neutrophils (human) (assay: inhibition of 125I-IL-8 (10^-12 M) binding to human neutrophils, peptide 100 µM). Conditions: not given.

Substance	% INHIB.
RRWWCY (peptide)	77.9%
RRWWCN (peptide)	-12%
RRWWCS (peptide)	79.3%
RRWWCW (peptide)	66.4%
RRWWCM (peptide)	69%
RRWWCK (peptide)	110%
RRWWCG (peptide)	86.8%
RRWWCL (peptide)	86.9%
RRWWCQ (peptide)	19.2%
RRWWCD (peptide)	11.8%
RRWWCP (peptide)	88.3%
RRWWCA (peptide)	51.9%
RRWWCC (peptide)	75.1%
RRWWCE (peptide)	17.1%
RRWWCT (peptide)	88.4%
RRWWCH (peptide)	87.9%
RRWWCV (peptide)	81.1%
RRWWCI (peptide)	45.8%
RRWWCF (peptide)	80.2%

The substances below were run on IL-8 receptors on neutrophils (assay: Inhibition of 125I-labeled IL-8 binding to human neutrophils). Conditions: not given.
Protocol: Therefore, in pursuing this aim, the present inventors assayed various other peptide compositions for IL-8 inhibitory activity by screening a library of 400 groups of hexapeptides. In these screening assays, ^125I-labeled interleukin-8 (10^−12 M) was mixed with 100 μM peptide, then added to neutrophils and incubated at 4° C. for 90 min. The bound radioactivity was separated from unbound by centrifugation through a dense cushion of a mixture of paraffin and silicon oils and the ^125I bound to neutrophils was counted in a gamma radiation spectrometer, allowing the results to be expressed as the percent of IL-8 binding which was inhibited.
The use of human subjects for acquisition of neutrophils was approved by the Institutional Review Board for human experimentation. For the preparation of neutrophils, human blood was anticoagulated with heparin for enzyme release studies and with 0.33% sodium citrate for other studies. For chemotactic and enzyme release studies neutrophils were separated by dextran sedimentation and erythrocyte lysis by the method of Boyum (Kohler and Milstein, 1975). For binding studies and cytotoxic studies, the neutrophils were further purified in gradients of Percoll (Pharmacia Fine Chemicals, Piscataway, N.J.) to a purity of 90-93% (Kohler and Milstein, 1975).
Recombinant human IL-8 (72 amino acids; Pepro Tech Inc., Rocky Hill, N.J.) was radioactively labeled with ^125I by the chloramine T method of Hunter and Greenwood (Hunter and Greenwood, 1962). Binding studies were performed according to Besemer et al. (1989), as follows: Neutrophils in phosphate buffered saline pH 7.4 (PBS) containing 0.1% bovine serum albumin (BSA) were incubated with labeled ligand in the presence or absence of the peptide being tested for 90 min at 4° C. to reach equilibrium and then centrifuged at 12,000×g for 3 min in Beckman B microfuge (Beckman Instruments, Fullerton, Calif.), through a cushion consisting of a mixture of paraffin oil Fisher Scientific, Fair Lawn, N.J.) and silicon oil (Serva Co., N.Y., N.Y.). The pellet and supernatant were then counted in a gamma radiation spectrometer. The non-specific binding was estimated to measure the binding in the presence of 100-fold excess of non-labeled ligand. The binding constants were calculated using the computer programs Lundon I and Lundon II.
In these studies, a screening for inhibition was carried out at 100 μM concentration of the peptide being tested, with a 10^−12 M concentration of IL-8. In the first series of studies, twenty peptides were synthesized with the carboxyl-terminal residue of RRWWCX (SEQ ID NO:23) being changed to each of the standard protein amino acids in turn.

Substance	ability to inhibit IL-8 binding to neutrophils	potency as inhibitor relative to Ac-rrwwcr-NH2
GWRRWWCDAVLY [segment of cell surface glycoprotein CD11c precursor, human leukocyte adhesion receptor p150,95 alpha chain, reference compound]	lack of activity	–
ELRSQSIKTY [reference compound]	None of these peptides had the ability to inhibit IL-8 binding	–
ELRCQCIKTY [IL-8 homologue including the C-X-C motif, reference compound]	None of these peptides had the ability to inhibit IL-8 binding	–
Arg Arg Trp Trp Cys Asp (Ac-RRWWCD; also: D-amino acids, positions not given here)	only minimally active	–
Arg Arg Trp Trp Cys Arg Cys (Ac-[dR][dR][dW][dW][dC][dR][dC]-NH2; not fully specified; printed as Arg Arg Trp Trp Cys Arg Cys; cysteine pairing not given here) [rrwwcrc]	–	almost four times as potent
ELRMQMIKTY [reference compound]	None of these peptides had the ability to inhibit IL-8 binding	–
Ac-KELRCQ-NH2 [IL-8 homologue peptide, reference compound]	None of these peptides had the ability to inhibit IL-8 binding	–

Same assay, conditions: 10 μM peptide (FIG. 9)

Substance	inhibition of IL-8 binding to neutrophils
Arg Arg Trp Trp Cys Arg Cys (Ac-[dR][dR][dW][dW][dC][dR][dC]-NH2; not fully specified; printed as Arg Arg Trp Trp Cys Arg Cys; cysteine pairing not given here) [rrwwcrc]	80%

Same assay, conditions: 20 μM peptide

Substance	IL-8 binding inhibition at lower peptide concentration (FIG. 1)
RRWWCN	did indeed exhibit certain inhibitory properties

Same assay, conditions: 100 μM peptide, 10^−12 M IL-8; hexamer RRWWCX series, first screen

Substance	% INHIB. (IL-8 binding to neutrophils)
RRWWCE	17.1%
RRWWCA	51.9%
RRWWCM	69.0%
RRWWCG	86.8%
RRWWCC (cysteine pairing not given here)	75.1%
RRWWCT	88.4%
RRWWCL	86.9%
RRWWCQ	19.2%
RRWWCV	81.1%
RRWWCI	45.8%
RRWWCW	66.4%
RRWWCF	80.2%
RRWWCN	−12.0%
RRWWCY	77.9%
RRWWCH	87.9%
RRWWCK	110.3%
Arg Arg Trp Trp Cys Asp (Ac-RRWWCD; also: D-amino acids, positions not given here)	11.8%
RRWWCP	88.3%
RRWWCS	79.3%

Same assay, conditions: first set of heptamer studies, D-amino acid RRWWCRX series; methodology of Example I

Substance	% INHIB. (IL-8 binding to neutrophils)
Arg Arg Trp Trp Cys Arg Met ([dR][dR][dW][dW][dC][dR][dM]) [rrwwcrm]	96.2%
Arg Arg Trp Trp Cys Arg Phe ([dR][dR][dW][dW][dC][dR][dF]) [rrwwcrf]	105.6%
Arg Arg Trp Trp Cys Arg His ([dR][dR][dW][dW][dC][dR][dH]) [rrwwcrh]	107.0%
Arg Arg Trp Trp Cys Arg Lys ([dR][dR][dW][dW][dC][dR][dK]) [rrwwcrk]	113.1%
Arg Arg Trp Trp Cys Arg Asp ([dR][dR][dW][dW][dC][dR][dD]) [rrwwcrd]	107.0%
Arg Arg Trp Trp Cys Arg Ala ([dR][dR][dW][dW][dC][dR][dA]) [rrwwcra]	95.3%
Arg Arg Trp Trp Cys Arg Arg ([dR][dR][dW][dW][dC][dR][dR]) [rrwwcrr]	102.8%
Arg Arg Trp Trp Cys Arg Leu ([dR][dR][dW][dW][dC][dR][dL]) [rrwwcrl]	99.1%
Arg Arg Trp Trp Cys Arg Tyr ([dR][dR][dW][dW][dC][dR][dY]) [rrwwcry]	85.4%
Arg Arg Trp Trp Cys Arg Val ([dR][dR][dW][dW][dC][dR][dV]) [rrwwcrv]	89.2%
Arg Arg Trp Trp Cys Arg Gln ([dR][dR][dW][dW][dC][dR][dQ]) [rrwwcrq]	89.2%
Arg Arg Trp Trp Cys Arg Pro ([dR][dR][dW][dW][dC][dR][dP]) [rrwwcrp]	87.3%
Arg Arg Trp Trp Cys Arg Glu ([dR][dR][dW][dW][dC][dR][dE]) [rrwwcre]	99.1%
Arg Arg Trp Trp Cys Arg Thr ([dR][dR][dW][dW][dC][dR][dT]) [rrwwcrt]	56.3%
Arg Arg Trp Trp Cys Arg Gly ([dR][dR][dW][dW][dC][dR]G) [rrwwcrg]	108.0%
Arg Arg Trp Trp Cys Arg Asn ([dR][dR][dW][dW][dC][dR][dN]) [rrwwcrn]	110.8%
Arg Arg Trp Trp Cys Arg Trp ([dR][dR][dW][dW][dC][dR][dW]) [rrwwcrw]	106.3%
Arg Arg Trp Trp Cys Arg Ser ([dR][dR][dW][dW][dC][dR][dS]) [rrwwcrs]	70.4%
Arg Arg Trp Trp Cys Arg Ile ([dR][dR][dW][dW][dC][dR][dI]) [rrwwcri]	93.9%
Arg Arg Trp Trp Cys Arg Cys (Ac-[dR][dR][dW][dW][dC][dR][dC]-NH2; not fully specified; printed as Arg Arg Trp Trp Cys Arg Cys; cysteine pairing not given here) [rrwwcrc]	107.7%

Same assay, conditions: lower peptide concentration (FIG. 9)

Substance	more effective than the next best heptamer peptide
Arg Arg Trp Trp Cys Arg Cys (Ac-[dR][dR][dW][dW][dC][dR][dC]-NH2; not fully specified; printed as Arg Arg Trp Trp Cys Arg Cys; cysteine pairing not given here) [rrwwcrc]	~56%

Same assay, conditions: synthetic peptides, standard assay (Table 6)

Substance	% Binding Inhibition (IL-8 binding to neutrophils)
GWRRWWCDAVLY [segment of cell surface glycoprotein CD11c precursor, human leukocyte adhesion receptor p150,95 alpha chain, reference compound]	−12.9 ± 2.9%
ELRSQSIKTY [reference compound]	5.8 ± 3.9%
ELRCQCIKTY [IL-8 homologue including the C-X-C motif, reference compound]	7.6 ± 2.1%
ELRMQMIKTY [reference compound]	−6.9 ± 3.0%
Ac-KELRCQ-NH2 [IL-8 homologue peptide, reference compound]	−0.4 ± 11.8%
